Test results: patent US8148391B2 (Cephalon, Inc., priority 2006, dated 2012)
pIC50: −log10 of the molar value. Like-named read-outs stand apart in the source and are kept apart here.

What was measured:
[1] = molecular target: T1, c-Met (cytoplasmic domain) (Homo sapiens, UniProt P08581); experiment: c-Met Kinase Assay (same methods as for ALK, with modifications); type: biochemical
T1 construct: 10 ng/mL c-Met (cytoplasmic domain, Invitrogen Corporation #PV3143); purchased Invitrogen Corporation PV3143
T1 sequence (P08581 956-1390 limits assumed): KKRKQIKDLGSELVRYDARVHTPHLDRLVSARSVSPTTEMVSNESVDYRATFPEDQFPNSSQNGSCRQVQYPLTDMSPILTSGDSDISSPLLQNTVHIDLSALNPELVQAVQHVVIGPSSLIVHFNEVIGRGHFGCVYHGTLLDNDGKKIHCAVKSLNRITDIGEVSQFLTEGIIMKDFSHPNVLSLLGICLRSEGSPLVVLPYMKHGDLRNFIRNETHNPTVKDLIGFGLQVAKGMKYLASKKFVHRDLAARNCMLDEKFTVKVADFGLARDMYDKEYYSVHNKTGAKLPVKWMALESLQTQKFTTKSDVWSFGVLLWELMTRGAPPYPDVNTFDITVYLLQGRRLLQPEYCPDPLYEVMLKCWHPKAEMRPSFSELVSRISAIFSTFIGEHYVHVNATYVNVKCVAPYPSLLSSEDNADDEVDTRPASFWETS
Method in brief: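 This plate-based kinase format uses immobilized phospholipase C-γ as substrate, phosphorylated by c-Met cytoplasmic domain (10 ng/mL) at 37° C for 15 minutes.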

[2] = molecular target: T2, baculovirus-expressed ALK (Homo sapiens, UniProt Q9UM73); experiment: ALK Kinase Assay (ELISA-type, time-resolved fluorescence); type: biochemical
T2 construct: host or cells: baculovirus expression system
T2 sequence (Q9UM73 19-1620): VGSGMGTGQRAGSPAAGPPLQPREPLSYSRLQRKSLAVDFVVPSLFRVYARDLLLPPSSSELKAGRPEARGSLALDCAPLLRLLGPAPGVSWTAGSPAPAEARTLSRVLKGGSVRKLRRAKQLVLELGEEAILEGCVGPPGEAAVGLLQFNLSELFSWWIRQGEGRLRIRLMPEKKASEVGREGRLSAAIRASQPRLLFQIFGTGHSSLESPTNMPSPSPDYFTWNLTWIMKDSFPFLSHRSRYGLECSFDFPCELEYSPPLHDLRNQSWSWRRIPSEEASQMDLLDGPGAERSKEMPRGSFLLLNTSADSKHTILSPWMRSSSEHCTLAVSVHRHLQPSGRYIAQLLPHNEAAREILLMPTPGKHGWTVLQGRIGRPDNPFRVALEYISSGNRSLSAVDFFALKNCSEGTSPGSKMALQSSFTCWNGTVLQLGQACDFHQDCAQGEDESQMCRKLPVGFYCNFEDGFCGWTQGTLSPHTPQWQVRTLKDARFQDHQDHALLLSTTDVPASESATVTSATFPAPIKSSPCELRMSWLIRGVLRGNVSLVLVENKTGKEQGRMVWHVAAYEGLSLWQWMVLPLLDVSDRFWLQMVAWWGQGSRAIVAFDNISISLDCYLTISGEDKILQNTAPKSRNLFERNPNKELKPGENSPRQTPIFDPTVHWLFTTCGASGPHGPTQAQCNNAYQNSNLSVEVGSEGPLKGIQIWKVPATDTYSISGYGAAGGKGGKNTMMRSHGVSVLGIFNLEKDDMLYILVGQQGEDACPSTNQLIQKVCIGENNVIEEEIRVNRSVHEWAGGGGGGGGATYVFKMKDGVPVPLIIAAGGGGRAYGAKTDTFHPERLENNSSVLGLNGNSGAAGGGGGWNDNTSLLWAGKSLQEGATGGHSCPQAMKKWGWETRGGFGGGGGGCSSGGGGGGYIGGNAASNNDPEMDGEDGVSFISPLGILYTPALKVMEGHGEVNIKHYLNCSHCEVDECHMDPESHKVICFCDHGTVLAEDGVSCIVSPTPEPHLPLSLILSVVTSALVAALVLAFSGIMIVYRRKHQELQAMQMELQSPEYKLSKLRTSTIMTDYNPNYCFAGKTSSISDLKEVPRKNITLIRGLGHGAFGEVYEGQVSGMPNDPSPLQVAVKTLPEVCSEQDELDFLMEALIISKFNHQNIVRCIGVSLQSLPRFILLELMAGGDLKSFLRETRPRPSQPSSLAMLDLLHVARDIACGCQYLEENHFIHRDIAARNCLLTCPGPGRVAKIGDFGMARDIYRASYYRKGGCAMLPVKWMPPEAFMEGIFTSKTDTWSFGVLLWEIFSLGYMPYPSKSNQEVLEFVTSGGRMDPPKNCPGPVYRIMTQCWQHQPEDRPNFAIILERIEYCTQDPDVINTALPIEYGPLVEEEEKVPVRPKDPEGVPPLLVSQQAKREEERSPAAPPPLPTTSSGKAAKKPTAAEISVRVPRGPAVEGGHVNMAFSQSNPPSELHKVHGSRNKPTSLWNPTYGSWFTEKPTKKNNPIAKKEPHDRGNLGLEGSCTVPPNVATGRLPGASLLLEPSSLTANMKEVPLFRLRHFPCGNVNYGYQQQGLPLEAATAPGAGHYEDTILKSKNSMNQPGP
Method in brief: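 Substrate coating: phospholipase C-γ, 10 μg/mL in TBS. Kinase step: 30 ng/ml ALK, 15 min, 37° C. Detection and analysis: Eu-N1 PT66 antibody, with IC50 fitted as a sigmoidal variable-slope dose-response curve.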

[3] = c-Met kinase inhibition, 1 μM ATP, read-out: cMet Activity
[4] = ALK kinase inhibition, 1 μM ATP, read-out: ALK Activity
[5] = 1 μM ATP (Km level), read-out: cMet Activity (c-Met Kinase Inhibition, IC50)
[6] = 1 μM ATP (Km level), read-out: ALK Activity (ALK Kinase Inhibition, IC50)
[7] = 1 μM ATP (Km level), 10 ng/mL c-Met, read-out: cMet Activity (c-Met kinase inhibition, IC50 class)
[8] = 1 μM ATP (Km level), 30 ng/ml ALK, 37° C., 15 minutes, read-out: ALK Activity (ALK kinase inhibition, IC50 class)
[9] = c-Met kinase inhibition, 1 μM ATP (Km level), read-out: cMet Activity
[10] = ALK kinase inhibition, 1 μM ATP (Km level), read-out: ALK Activity

| pIC50 [1, 3] | pIC50 [2, 4] | pIC50 [1, 5] | pIC50 [2, 6] | Compound | also measured |
| --- | --- | --- | --- | --- | --- |
| 6.00 to 7.00 | < 5.00 |  |  | CNC(=O)c1cccc(C(F)(F)F)c1Nc1nc(Nc2ccc3c(c2)CCOC(=O)N3C)ncc1Cl [Example 1753, 2-[5-Chloro-2-(5-methyl-6-oxo-5,6,8,9-tetrahydro-7-oxa-5-aza-benzocyclohepten-2-ylamino)-pyrimidin-4-ylamino]-N-methyl-3-trifluoromethyl-benzamide] |  |
| > 7.00 | > 7.00 |  |  | CNC(=O)c1cccc(F)c1Nc1nc(Nc2ccc3c(c2)NC(=O)CN(S(C)(=O)=O)C3)ncc1Cl [Example 1860, 2-[5-Chloro-2-(4-methanesulfonyl-2-oxo-2,3,4,5-tetrahydro-1H-benzo[e][1,4]diazepin-8-ylamino)pyrimidin-4-ylamino]-3-fluoro-N-methyl-benzamide] |  |
| 6.00 to 7.00 | 6.00 to 7.00 |  |  | C#CCNC(=O)c1cccc(F)c1Nc1nc(Nc2ccc3c(c2)OCCCN3C(=O)OC2CCCN(C)C2)ncc1Cl (stereo not drawn) [Example 1439, 3-[5-Chloro-4-(2-fluoro-6-prop-2-ynylcarbamoyl-phenylamino)-pyrimidin-2-ylamino]-7,8-dihydro-6H-5-oxa-9-aza-benzocycloheptene-9-carboxylic acid 1-methyl-piperidin-3-yl ester] |  |
|  |  | < 5.00 | 5.00 to 6.00 | COCCOC(=O)C1[C@@H]2C=C[C@@H](C2)[C@H]1Nc1nc(Nc2ccc3c(c2OC)CC[C@@H](N2CCOCC2)CC3)ncc1Cl (single isomer, unassigned) [Example 904] |  |
|  |  |  |  | COc1cccc(C(=O)NCCC#N)c1Nc1nc(Nc2ccc3c(c2)CCCC(=O)N3C)ncc1Cl [Example 1062, 2-[5-Chloro-2-(1-methyl-2-oxo-2,3,4,5-tetrahydro-1H-benzo[b]azepin-7-ylamino)-pyrimidin-4-ylamino]-N-(2-cyano-ethyl)-3-methoxy-benzamide] | pIC50 [1, 7]: 5.00 to 6.00; pIC50 [2, 8]: < 5.00 |
| 6.00 to 7.00 | 5.00 to 6.00 |  |  | CNC(=O)c1cc(F)ccc1Nc1nc(Nc2ccc3c(c2)-c2nccn2CCC3)ncc1Cl [Example 1847, 2-[5-Chloro-2-(5,6-dihydro-4H-1,3a-diaza-benzo[e]azulen-9-ylamino)-pyrimidin-4-ylamino]-5-fluoro-N-methyl-benzamide] |  |
| > 7.00 | 6.00 to 7.00 |  |  | CCN1C(=O)C(NC(C)=O)CC(C)(C)c2ccc(Nc3ncc(Cl)c(Nc4c(F)cccc4C(=O)NC)n3)cc21 (stereo not drawn) [Example 1643, 2-[2-(3-Acetylamino-1-ethyl-5,5-dimethyl-2-oxo-2,3,4,5-tetrahydro-1H-benzo[b]azepin-8-ylamino)-5-chloro-pyrimidin-4-ylamino]-3-fluoro-N-methyl-benzamide] |  |
| 6.00 to 7.00 | > 7.00 |  |  | CNC(=O)c1cccc(Cl)c1Nc1nc(Nc2ccc3c(c2)CN(C)C(=O)CC3)ncc1Cl [Example 1805, 3-Chloro-2-[5-chloro-2-(2-methyl-3-oxo-2,3,4,5-tetrahydro-1H-benzo[c]azepin-8-ylamino)-pyrimidin-4-ylamino]-N-methyl-benzamide] |  |
|  |  | < 5.00 | > 7.00 | CCNC(=O)c1ccccc1Nc1nc(Nc2cccc3c2OCCCC3(C)C)ncc1Cl [Example 873, 2-[5-Chloro-2-(5,5-dimethyl-2,3,4,5-tetrahydro-benzo[b]oxepin-9-ylamino)-pyrimidin-4-ylamino]-N-ethyl-benzamide] |  |
|  |  | 5.00 to 6.00 | 6.00 to 7.00 | CN1C(=O)CCCc2cc(Nc3ncc(Cl)c(Nc4ccccc4-c4nc(C(F)(F)F)c[nH]4)n3)ccc21 [Example 1013, 7-{5-Chloro-4-[2-(4-trifluoromethyl-1H-imidazol-2-yl)-phenylamino]-pyrimidin-2-ylamino}-1-methyl-1,3,4,5-tetrahydro-benzo[b]azepin-2-one] |  |
|  |  | < 5.00 | 5.00 to 6.00 | Cc1ccc(-c2ccccc2Nc2nc(Nc3ccc4c(c3)C(C)(C)CCC(=O)N4)ncc2Cl)nc1 [Example 1003, 7-{5-Chloro-4-[2-(5-methyl-pyridin-2-yl)-phenylamino]-pyrimidin-2-ylamino}-5,5-dimethyl-1,3,4,5-tetrahydro-benzo[b]azepin-2-one] |  |
|  |  |  |  | CCN1C(=O)C(NC(=O)C(F)(F)F)CCc2c1ccc(Nc1ncc(Cl)c(N[C@@H]3CCCC[C@H]3NS(C)(=O)=O)n1)c2OC (stereo partly drawn) [Example 1335, N-{7-[5-Chloro-4-((1R,2R)-2-methanesulfonylamino-cyclohexylamino)-pyrimidin-2-ylamino]-1-ethyl-6-methoxy-2-oxo-2,3,4,5-tetrahydro-1H-benzo[b]azepin-3-yl}-2,2,2-trifluoro-acetamide] | pIC50 [1, 7]: < 5.00; pIC50 [2, 8]: > 7.00 |
|  |  | < 5.00 | 6.00 to 7.00 | COc1c(Nc2ncc(Cl)c(Nc3ccccc3-n3cccn3)n2)ccc2c1CCC(NCC(F)(F)F)CC2 (stereo not drawn) [Example 690, 5-Chloro-N*2*-[1-methoxy-7-(2,2,2-trifluoro-ethylamino)-6,7,8,9-tetrahydro-5H-benzocyclohepten-2-yl]-N*4*-(2-pyrazol-1-yl-phenyl)-pyrimidine-2,4-diamine] |  |
|  |  | < 5.00 | > 7.00 | COCC(COC)N1CCc2cc(Nc3ncc(Cl)c(Nc4ccccc4S(=O)(=O)N(C)C)n3)c(OC)cc2CC1 [Example 818, 2-{5-Chloro-2-[8-methoxy-3-(2-methoxy-1-methoxymethyl-ethyl)-2,3,4,5-tetrahydro-1H-benzo[d]azepin-7-ylamino]-pyrimidin-4-ylamino}-N,N-dimethyl-benzenesulfonamide] |  |
| 6.00 to 7.00 | 6.00 to 7.00 |  |  | CNC(=O)c1sccc1Nc1nc(Nc2ccc3c(c2)-n2ccnc2CCC3)ncc1Cl [Example 1840, 3-[5-Chloro-2-(5,6-dihydro-4H-3,10b-diaza-benzo[e]azulen-9-ylamino)-pyrimidin-4-ylamino]-thiophene-2-carboxylic acid methylamide] |  |
| < 5.00 | > 7.00 |  |  | COc1cc2c(cc1Nc1ncc(Cl)c(Nc3ccc(N(C)C)cc3OC)n1)CCN(CCN1CCOCC1)CC2 [Example 1537, 5-Chloro-N(4)-(4-dimethylamino-2-methoxy-phenyl)-N(2)-[8-methoxy-3-(2-morpholin-4-yl-ethyl)-2,3,4,5-tetrahydro-1H-3-benzazepin-7-yl]-pyrimidine-2,4-diamine] |  |
|  |  | < 5.00 | > 7.00 | COc1c(Nc2ncc(Cl)c(N[C@H]3[C@@H](C(N)=O)[C@@H]4C=C[C@H]3C4)n2)ccc2c1CCC(NCC(F)(F)F)CC2 (stereo partly drawn) [Example 679, (1S,2S,3R,4R)-3-{5-Chloro-2-[1-methoxy-7-(2,2,2-trifluoro-ethylamino)-6,7,8,9-tetrahydro-5H-benzocyclohepten-2-ylamino]-pyrimidin-4-ylamino}-bicyclo[2.2.1]hept-5-ene-2-carboxylic acid amide] |  |
|  |  |  |  | CNC(=O)c1ccccc1Nc1nc(Nc2ccc3c(c2)C2CCC3CN(C(C)=O)C2)ncc1Cl (stereo not drawn) [Example 283, 2-[2-(10-Acetyl-10-aza-tricyclo[6.3.2.0*2,7*]trideca-2,4,6-trien-4-ylamino)-5-chloro-pyrimidin-4-ylamino]-N-methyl-benzamide] | pIC50 [1, 9]: > 7.00; pIC50 [2, 10]: > 7.00 |
| > 7.00 | > 7.00 |  |  | CCN1CCNC(=O)c2ccc(Nc3ncc(Cl)c(Nc4ccccc4C(=O)NC)n3)cc21 [Example 1452, 2-[5-Chloro-2-(1-ethyl-5-oxo-2,3,4,5-tetrahydro-1H-benzo[e][1,4]diazepin-8-ylamino)-pyrimidin-4-ylamino]-N-methyl-benzamide] |  |
|  |  |  |  | CCN1C(=O)OCCc2ccc(Nc3ncc(Cl)c(Nc4ccsc4C(=O)NC)n3)cc21 [Example 1883, 3-[5-Chloro-2-(5-ethyl-6-oxo-5,6,8,9-tetrahydro-7-oxa-5-aza-benzocyclohepten-3-ylamino)-pyrimidin-4-ylamino]-thiophene-2-carboxylic acid methylamide] | pIC50 [1, 9]: > 7.00; pIC50 [2, 10]: > 7.00 |
|  |  | > 7.00 | > 7.00 | CCNC(=O)c1ccccc1Nc1nc(Nc2ccc3c(c2)CCC(N2CCOCC2)CC3)ncc1Cl (stereo not drawn) [Example 866, 2-[5-Chloro-2-(7-morpholin-4-yl-6,7,8,9-tetrahydro-5H-benzocyclohepten-2-ylamino)-pyrimidin-4-ylamino]-N-ethyl-benzamide] |  |
| 5.00 to 6.00 | > 7.00 |  |  | CC1(C)CCCN(CCN2CCCC2)c2cc(Nc3ncc(Cl)c(N[C@H]4[C@@H](C(N)=O)[C@@H]5C=C[C@H]4C5)n3)ccc21 [Example 1606, (1S,2S,3R,4R)-3-{5-Chloro-2-[5,5-dimethyl-1-(2-pyrrolidin-1-yl-ethyl)-2,3,4,5-tetrahydro-1H-benzo[b]azepin-8-ylamino]-pyrimidin-4-ylamino}-bicyclo[2.2.1]hept-5-ene-2-carboxylic acid amide] |  |
|  |  | < 5.00 | > 7.00 | CC1(C)CCC(=O)Nc2ccc(Nc3ncc(Cl)c(Nc4ccccc4-c4ncccn4)n3)cc21 [Example 976, 7-[5-Chloro-4-(2-pyrimidin-2-yl-phenylamino)-pyrimidin-2-ylamino]-5,5-dimethyl-1,3,4,5-tetrahydro-benzo[b]azepin-2-one] |  |
|  |  |  |  | COc1cc2c(cc1Nc1ncc(Cl)c(Nc3ccccc3S(=O)(=O)N(C)C)n1)CCC(N1CCOCC1)CC2 (stereo not drawn) [Example 1049, 2-[5-Chloro-2-(3-methoxy-7-morpholin-4-yl-6,7,8,9-tetrahydro-5H-benzocyclohepten-2-ylamino)-pyrimidin-4-ylamino]-N,N-dimethyl-benzenesulfonamide] | pIC50 [1, 7]: < 5.00; pIC50 [2, 8]: > 7.00 |
